Results taken from patent US10221163B2 (priority 2015, dated 2019).
Where two headings read alike, the source gives them in different places.

Key:
[1] = molecular target: IMP-1 (Serratia marcescens, UniProt P52699); test: biochemical; format: biochemical; conditions: fluorescence assay, CCF2-FA substrate, 2 pM enzyme, 2 hours at 25° C.; read-out: IMP-1 IC50
Method in brief: (§1)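 Fluorescence assay of metallo-β-lactamase activity using CCF2-FA, a cephalosporin-linked 7-hydroxycoumarin–fluorescein substrate. Inhibitor, enzyme and substrate were incubated together for 2 hours at 25° C. IC50 came from a 4-parameter fit of inhibition versus inhibitor concentration.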

[2] = molecular target: NDM-1 (Klebsiella pneumoniae, UniProt C7C422); test: biochemical; format: biochemical; conditions: fluorescence assay, CCF2-FA substrate, 1 pM enzyme, 2 hours at 25° C.; read-out: NDM-1 IC50
Method in brief: as §1

[3] = system: Pseudomonas aeruginosa efflux+ (MB9798), IMP-1; format: cell-based; design: Concentration of metallo-β-lactamase inhibitor which restores susceptibility of efflux + (MB9798) strain to imipenem: unit not given here; conditions: C, D serine β-lactamase inhibitor closely related to relebactam; for P. aeruginosa expressing IMP-1, efflux + (MB9798) MITC95: concentration restoring susceptibility to imipenem at 2 μg/mL in the presence of a class A
Method in brief: (§2)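 PAO1 pair, broth microdilution; fixed β-lactam (imipenem/ceftazidime) at ~CLSI breakpoint + fixed class A/C BLI for AmpC; serial MBLi titration; endpoint = MBLi conc. restoring susceptibility; MB9798:MB9799 ratio = efflux liability.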

[4] = molecular target: VIM-1 (Pseudomonas aeruginosa (strain ATCC 15692 / DSM 22644 / CIP 104116 / JCM 14847 / LMG 12228 / 1C / PRS 101 / PAO1), UniProt A0A0F7KYQ8); test: biochemical; conditions: CCF2-FA substrate, 30 pM enzyme, 2 hours at 25° C.
Method in brief: as §1

[5] = system: Pseudomonas aeruginosa efflux− (MB9799), IMP-1; format: cell-based; conditions: C, D serine β-lactamase inhibitor closely related to relebactam; for P. aeruginosa expressing IMP-1, efflux − (MB9799) MITC95: concentration restoring susceptibility to imipenem at 2 μg/mL in the presence of a class A
Method in brief: as §2

[6] = system: Pseudomonas aeruginosa MB9798 vs MB9799
Method in brief: as §2

[7] = system: Escherichia coli expressing NDM-1 (CLB30005, CLB30016); format: cell-based; conditions: with imipenem 1 μg/ml; for Escherichia coli expressing NDM-1 (CLB30016) MITC95: 95% inhibition of bacterial growth; for Escherichia coli MITC95: NDM-1 strain, 95% inhibition of growth
Method in brief: (§3)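 Colonies grown overnight on blood agar at 35° C were suspended in saline, diluted 1:100 into 1.1×CAMHB and dispensed. Imipenem was added to 1 μg/ml, then test compound. After 22 hours to 24 hours at 35° C, absorbance was recorded.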

[8] = system: Klebsiella pneumoniae expressing VIM-1 (IHMA599644); format: cell-based; conditions: for Klebsiella pneumoniae expressing VIM-1 (IHMA599644) MITC95: with imipenem 1 μg/ml, 95% inhibition of bacterial growth; for Klebsiella pneumoniae MITC95: VIM-1 strain IHMA599644, with imipenem 1 μg/ml, 95% inhibition of growth
Method in brief: as §3

[9] = system: Serratia marcescens expressing IMP-1 (CL5741); format: cell-based; conditions: for Serratia marcescens expressing IMP-1 (CL5741) MITC95: with imipenem 1 μg/ml, 95% inhibition of bacterial growth; for Serratia marcescens MITC95: IMP-1 strain CL5741, with imipenem 1 μg/ml, 95% inhibition of growth
Method in brief: as §3

[10] = ratio MITC95 PA_9798/MITC95 PA_9799
[11] = fluorescence assay, read-out: VIM-1 IC50

IMP-1, sequence (P52699 whole entry, looked up, species assumed): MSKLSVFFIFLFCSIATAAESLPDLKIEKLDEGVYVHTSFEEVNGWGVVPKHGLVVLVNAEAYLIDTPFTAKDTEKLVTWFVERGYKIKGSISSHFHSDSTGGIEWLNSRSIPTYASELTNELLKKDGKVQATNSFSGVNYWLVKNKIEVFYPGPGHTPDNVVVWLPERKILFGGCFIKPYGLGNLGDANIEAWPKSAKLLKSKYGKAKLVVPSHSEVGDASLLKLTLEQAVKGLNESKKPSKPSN
NDM-1, sequence (C7C422 whole entry, looked up, species assumed): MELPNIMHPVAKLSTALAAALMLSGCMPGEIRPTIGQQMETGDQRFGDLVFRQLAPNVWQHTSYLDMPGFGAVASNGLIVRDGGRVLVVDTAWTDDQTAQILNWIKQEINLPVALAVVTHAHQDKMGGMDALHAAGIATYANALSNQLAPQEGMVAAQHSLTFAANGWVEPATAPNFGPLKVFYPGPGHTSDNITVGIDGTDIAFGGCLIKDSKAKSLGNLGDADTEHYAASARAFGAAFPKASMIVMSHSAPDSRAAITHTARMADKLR

| Compound | IC50 [1] | IC50 [2] | P. aeruginosa expressing IMP-1, efflux + (MB9798) MITC95 [3] | IC50 ([4]; VIM-1 IC50, fluorescence assay) | P. aeruginosa expressing IMP-1, efflux − (MB9799) MITC95 [5] | Efflux ratio [6, 10] | Escherichia coli expressing NDM-1 (CLB30016) MITC95 [7] | Klebsiella pneumoniae expressing VIM-1 (IHMA599644) MITC95 [8] | Serratia marcescens expressing IMP-1 (CL5741) MITC95 [9] | Concentration of metallo-β-lactamase inhibitor which restores susceptibility of efflux + (MB9798) strain to imipenem ([3]; efflux+ MB9798, imipenem at 2 μg/mL, in the presence of a class A) | IC50 [4, 11] | Concentration of metallo-β-lactamase inhibitor which restores susceptibility of efflux − (MB9799) strain to imipenem ([5]; efflux− MB9799, imipenem at 2 μg/mL, in the presence of a class A) | Efflux ratio ([6]; fold difference between efflux+ (MB9798) and efflux− (MB9799) strains, imipenem at 2 μg/mL) | Escherichia coli MITC95 [7] | Klebsiella pneumoniae MITC95 [8] | Serratia marcescens MITC95 [9] |
| --- | --- | --- | --- | --- | --- | --- | --- | --- | --- | --- | --- | --- | --- | --- | --- | --- |
| COC(=O)[C@H]1C[C@@H](NS(=O)(=O)c2ccc(-c3cccc4sc(N)nc34)c(-c3nnn[nH]3)c2S(N)(=O)=O)CN1 [Example 128, Methyl (2R,4R)-4-((4-(2-aminobenzo[d]thiazol-4-yl)-2-sulfamoyl-3-(1H-tetrazol-5-yl)phenyl)sulfonamido)pyrrolidine-2-carboxylate] | 0.177 nM | 0.0443 nM | 6.25 µM | 0.199 nM | 6.25 µM | 1.00 | 3.125 µM | 12.5 µM | 6.25 µM |  |  |  |  |  |  |  |
| NCCNS(=O)(=O)c1ccc(-c2ccc3sc(CN)nc3c2)c(-c2nn[nH]n2)c1S(N)(=O)=O [Example 476, N1-(2-aminoethyl)-4-(2-(aminomethyl)benzo[d]thiazol-5-yl)-3-(2H-tetrazol-5-yl)benzene-1,2-disulfonamide] | 0.281 nM | 0.27 nM |  |  |  |  |  |  |  | 0.7813 | 0.121 nM | 0.7813 | 1.00 | 1.563 µM | 1.563 µM | 0.7813 µM |
| Nc1nc2c(-c3ccc(S(=O)(=O)NC4CC5CNC4C5)c(S(N)(=O)=O)c3-c3nnn[nH]3)cccc2s1 (stereo not drawn) [Example 89, 4-(2-aminobenzo[d]thiazol-4-yl)-N^1-(2-azabicyclo[2.2.1]heptan-6-yl)-3-(1H-tetrazol-5-yl)benzene-1,2-disulfonamide] | 0.568 nM | 0.0581 nM | 1.563 µM |  | 1.563 µM | 1.00 | 6.25 µM | 6.25 µM | 3.125 µM |  | 0.23 nM |  |  |  |  |  |
| Nc1cccc(-c2ccc(S(=O)(=O)N[C@@H]3CCNC3)c(S(N)(=O)=O)c2-c2nn[nH]n2)n1 [Example 277, (R)-4-(6-aminopyridin-2-yl)-N1-(pyrrolidin-3-yl)-3-(2H-tetrazol-5-yl)benzene-1,2-disulfonamide] | 1.27 nM | 0.148 nM | 0.7813 µM |  | 0.7813 µM | 1.00 |  |  |  |  | 0.129 nM |  |  | 0.7813 µM | 1.563 µM | 1.563 µM |
| NC[C@@H](CO)NS(=O)(=O)c1ccc(-c2cccc(N)n2)c(-c2nn[nH]n2)c1S(N)(=O)=O [Example 382, (S)—N1-(1-amino-3-hydroxypropan-2-yl)-4-(6-aminopyridin-2-yl)-3-(2H-tetrazol-5-yl)benzene-1,2-disulfonamide] | 0.651 nM | 0.22 nM | 1.563 µM |  | 1.563 µM | 1.00 |  |  |  |  | 0.271 nM |  |  | 1.563 µM | 3.125 µM | 1.563 µM |
| Nc1ccc2cccc(-c3ccc(S(N)(=O)=O)c(S(N)(=O)=O)c3-c3nn[nH]n3)c2n1 [Example 2, 4-(2-aminoquinolin-8-yl)-3-(2H-tetrazol-5-yl)benzene-1,2-disulfonamide] | 0.279 nM | 0.163 nM | 0.7813 µM |  | 0.7813 µM | 1.00 | 0.7813 µM | 1.563 µM | 0.7813 µM |  | 0.462 nM |  |  |  |  |  |
| Nc1nc2c(-c3ccc(S(=O)(=O)NCC(=O)O)c(S(N)(=O)=O)c3-c3nn[nH]n3)cccc2s1 [Example 153, ((4-(2-aminobenzo[d]thiazol-4-yl)-2-sulfamoyl-3-(2H-tetrazol-5-yl)phenyl)sulfonyl)glycine] | 0.704 nM | 0.28 nM | 12.5 µM | 1.05 nM | 12.5 µM | 1.00 | 50 µM | 100 µM | 25 µM |  |  |  |  |  |  |  |
| NC[C@H](N)CNS(=O)(=O)c1ccc(-c2cccc3[nH]c(N)nc23)c(-c2nn[nH]n2)c1S(N)(=O)=O [Example 370, (S)-4-(2-amino-1H-benzo[d]imidazol-4-yl)-N1-(2,3-diaminopropyl)-3-(2H-tetrazol-5-yl)benzene-1,2-disulfonamide] | 0.663 nM | 0.0459 nM | 0.7813 µM | 0.209 nM | 0.7813 µM | 1.00 |  |  |  |  |  |  |  | 0.3906 µM | 1.563 µM | 1.172 µM |
| Nc1nc2c(-c3ccc(S(=O)(=O)NC4CN5CCC4CC5)c(S(N)(=O)=O)c3-c3nnn[nH]3)cccc2s1.O=C(O)C(F)(F)F (stereo not drawn) [Example 97, 3-(4-(2-aminobenzo[d]thiazol-4-yl)-2-sulfamoyl-3-(1H-tetrazol-5-yl)phenylsulfonamido)quinuclidin-1-ium 2,2,2-trifluoroacetate] | 0.383 nM | 0.0214 nM | 1.563 µM | 0.222 nM | 1.563 µM | 1.00 | 3.125 µM | 3.125 µM | 3.125 µM |  |  |  |  |  |  |  |
| NCCNS(=O)(=O)c1ccc(-c2cccc3[nH]c(CCN)nc23)c(-c2nn[nH]n2)c1S(N)(=O)=O [Example 337, N1-(2-aminoethyl)-4-(2-(2-aminoethyl)-1H-benzo[d]imidazol-4-yl)-3-(2H-tetrazol-5-yl)benzene-1,2-disulfonamide] | 2.23 nM | 0.208 nM | 0.7813 µM |  | 0.3906 µM | 2.00 |  |  |  |  | 0.2 nM |  |  | 0.7813 µM | 0.7813 µM | 0.7813 µM |
